Source: US8859783B2, “Indirubin-3′-oxime derivatives as potent cyclin dependent kinase inhibitors” (Anygen Co., Ltd., priority 2010, dated 2014)
Where “and” joins values, the source holds several entries; their conditions need not be identical. Equal entries are not always repeated.

Experiments:
[1] = tested on: A549 human lung cancer cell; assay: SRB cell proliferation assay, A549; format: cell-based; details: A549, 72 h, 3 days
Method: (§1) ^a A series of indirubin derivatives were tested at five concentrations for their effects on various human cancer cell lines using SRB assay, as described in the Experimental Section.
(§2) Cells (A549, HT1080, HCT116, K562, SNU638, KB, MCF-7) were counted, diluted to 5×10^4 cells/mL with fresh medium (MEME, DMEM or RPMI containing 10% FBS), and added 190 μL of cell suspension to 96-well plates containing various concentrations of test compounds (10 μL in 10% aqueous DMSO). Test plates were incubated for 3 days at 37° C. in CO2 incubator. For zero day controls, cells were incubated for 30 min at 37° C. in CO2 incubator. All treatments were performed in triplicate. After the incubation periods, cells were fixed with 50 μL of cold 50% TCA at 4° C. for 30 min, washed 5 times with tap water, and air-dried. The fixed cells were stained with 0.4% SRB solution in 1% aqueous acetic acid at room temperature for 1 h. Free SRB solution was then removed by rinsing 5 times with 1% acetic acid, and air-dried. The bound dye was dissolved with 200 µL of 10 mM Tris-base (pH 10.0), and absorbance was determined at 515 nm using an ELISA microplate reader. Finally, the absorbance values obtained with each of the treatment procedures were averaged, and the average values obtained with the zero day control were subtracted.

[2] = tested on: SNU638 human stomach cancer cell; assay: SRB cell proliferation assay, SNU638; format: cell-based; details: SNU-638, 72 h, 3 days
Method: as §1, §2

[3] = tested on: K562 human leukemia cell; assay: SRB cell proliferation assay, K562; format: cell-based; details: K562, 72 h, 3 days
Method: as §1, §2

[4] = tested on: MCF-7 human breast cancer cell; assay: SRB cell proliferation assay, MCF-7; format: cell-based; details: MCF7, 72 h, 3 days
Method: as §1, §2

[5] = tested on: HT1080 human fibro sarcoma cell; assay: SRB cell proliferation assay, HT1080; format: cell-based; details: HT-1080, 72 h, 3 days
Method: as §1, §2

[6] = tested on: HCT116 human colon cancer cell; assay: SRB cell proliferation assay, HCT116; format: cell-based; details: 3 days
Method: as §1, §2

[7] = tested on: KB human nasopharyngeal cancer cell; assay: SRB cell proliferation assay, KB; format: cell-based; details: 72 h, 3 days
Method: as §1, §2

[8] = target: T1, CDK2/cyclin E (Homo sapiens, UniProt P24941); assay: CDK2/cyclin E kinase assay; format: biochemical; details: for IC50: ten concentrations, dose response curves, read-out: CDK2/cyclin E inhibitory activity IC50; for CDK2 potency relative to compound 1: higher potency than 1
T1 construct: purchased Milipore (Billerica, Mass.)
Method: CDK1/cyclin B, CDK2/cyclin E were purchased from Milipore (Billerica, Mass.). The kinase activity was tested in buffer (8 mM MOPS pH 7.0, 0.2 mM EDTA, 10 mM MgAcetate), with 0.1 mg/mL histone H1, in the presence of 45 µM [—^33P] ATP (500 cpm/pmol) for CDK1 or 120 μM [γ—^33P] ATP (500 cpm/pmol) for CDK2 in a final reaction volume of […]. The reaction was initiated by the addition of the MgATP mix. After incubation for 40 min at 30° C., the reaction was stopped by the addition of 5 μL of 3% phosphoric acid solution. 10 μL aliquots of supernatant were spotted onto 2.5 cm×3 cm pieces of Whatman […] phosphocellulose paper, and 20 s later, the filters were washed three times for 5 min in 75 mM phosphoric acid and once in methanol prior to drying. The […] filters were counted in the presence of 1 mL of ACS (Amersham) scintillation fluid. The activities are usually expressed as a percentage of the maximal activity, i.e., in the absence of inhibitors. Controls were applied with appropriate dilutions of DMSO.

[9] = tested on: several human cancer cell lines; assay: SRB cell proliferation assay, summary over cell lines; format: cell-based; details: for IC50: Homo sapiens, range over cell lines, read-out: anti-proliferative IC50, range over cancer cell lines
Method: as §1, §2

| IC50 [1] [µM] | IC50 [2] [µM] | IC50 [3] [µM] | IC50 [4] [µM] | IC50 [5] [µM] | IC50 ([6]; Homo sapiens, HCT-116, 72 h) [µM] | IC50 [7] [µM] | IC50 [8] | CDK2 potency relative to compound 1 [8] | IC50 [9] [µM] | selectivity for CDK2 over CDK1 ([8]; CDK2 vs CDK1) [fold] | CDK2 inhibitory effect relative to 16b ([8]; enhanced compared with 16b) [fold] | IC50 [6] [µM] | Compound | anti-proliferative activity in words [9] |
| --- | --- | --- | --- | --- | --- | --- | --- | --- | --- | --- | --- | --- | --- | --- |
| > 20 | 12.7 | > 20 | 8.79 | > 20 | 18.8 | 5.18 |  |  |  |  |  |  | Cc1ccc2c(c1)C(=NO)/C(=C1/C(=O)Nc3ccc(Cl)cc31)N2 [Compound 14a, (2′Z, 3′E)-5′-Methyl-5-chloro-indirubin-3′-oxime] |  |
| 6.71 | 13.6 | 5.29 | > 20 | 4.84 | 3.59 | > 20 | 4.12 µM |  |  |  |  |  | COc1ccc2c(c1)C(=NO)/C(=C1/C(=O)Nc3ccc(F)cc31)N2 [Compound 16b, (2′Z, 3′E)-5′-Methoxy-5-fluoro-indirubin-3′-oxime] | moderate anti-proliferative activity |
| 19.9 | 1.89 | 1.5 | 4.1 | 3.95 | 1.5 | 3.8 | 0.0603 µM |  |  |  |  |  | O=C1Nc2ccc(OC(F)(F)F)cc2/C1=C1/Nc2ccc(F)cc2C1=NO [Compound 13d, (2′Z, 3′E)-5′-Fluoro-5-trifluoromethoxy-indirubin-3′-oxime] |  |
| > 20 | > 20 | > 20 | 7.3 | > 20 | > 20 | 8.13 |  |  |  |  |  |  | Cc1ccc2c(c1)C(=NO)/C(=C1/C(=O)Nc3ccc(OC(F)(F)F)cc31)N2 [Compound 14d, (2′Z, 3′E)-5′-Methyl-5-trifluoromethoxy-indirubin-3′-oxime] |  |
| > 20 | 6.32 | 7.14 | 7 | 5.33 | 3.3 | 9.1 | 0.00801 µM |  |  |  |  |  | O=C1Nc2ccc(Cl)cc2/C1=C1/Nc2ccc(F)cc2C1=NO [Compound 13a, (2′Z, 3′E)-5′-Fluoro-5-chloro-indirubin-3′-oxime] |  |
| 10.3 | 2.23 | 15.9 | 6.57 | 8.6 | 13.5 | 13.2 | 0.00183 µM | approximately 4 fold |  |  |  |  | O=C1Nc2ccc(F)cc2/C1=C1/Nc2ccc(F)cc2C1=NO [Compound 13c, (2′Z, 3′E)-5′-Fluoro-5-fluoro-indirubin-3′-oxime] |  |
| > 20 | 1.06 | 0.8 | 1.06 | 3.92 | 1.41 | 2.1 | 0.00868 µM |  | 0.8 to 1 | 7 | 270 |  | Cc1ccc2c(c1)C(=NO)/C(=C1/C(=O)Nc3ccc([N+](=O)[O-])cc31)N2 [Compound 14b, (2′Z, 3′E)-5′-Methyl-5-nitro-indirubin-3′-oxime] |  |
| > 20 | 11.5 | > 20 | 10.5 | > 20 | > 20 | 10.6 |  |  |  |  |  |  | Cc1ccc2c(c1)C(=NO)/C(=C1/C(=O)Nc3ccc(F)cc31)N2 [Compound 14c, (2′Z, 3′E)-5′-Methyl-5-fluoro-indirubin-3′-oxime] |  |
| > 20 | > 20 | > 20 | > 20 | > 20 | > 20 | > 20 | 2.95 µM |  |  |  |  |  | COc1ccc2c(c1)C(=NO)/C(=C1/C(=O)Nc3ccc([N+](=O)[O-])cc31)N2 [Compound 16a, (2′Z, 3′E)-5′-Methoxy-5-nitro-indirubin-3′-oxime] |  |
| 0.57 | 0.94 | 0.46 | 0.9 | 0.64 | ~0.3 | 0.9 | 0.00171 µM | approximately 4 fold | 0.2 to 3.3 |  |  | 0.28 | O=C1Nc2ccc([N+](=O)[O-])cc2/C1=C1/Nc2ccc(F)cc2C1=NO [Compound 13b, (2′Z, 3′E)-5′-Fluoro-5-nitro-indirubin-3′-oxime] |  |
| > 20 | > 20 | > 20 | 13 | > 20 | > 20 | 20 | 8.62 µM |  |  |  |  |  | COc1ccc2c(c1)C(=NO)/C(=C1/C(=O)Nc3ccc(OC(F)(F)F)cc31)N2 [Compound 16c, (2′Z, 3′E)-5′-Methoxy-5-trifluoromethoxy-indirubin-3′-oxime] |  |

More lines, now with the values behind:

| Compound | IC50 [1] [µM] | IC50 [2] [µM] | IC50 [3] [µM] | IC50 [4] [µM] | IC50 [5] [µM] | IC50 ([6]; Homo sapiens, HCT-116, 72 h) [µM] | IC50 [7] [µM] | IC50 [8] | CDK2 potency relative to compound 1 [8] | IC50 [9] [µM] | selectivity for CDK2 over CDK1 ([8]; CDK2 vs CDK1) [fold] | CDK2 inhibitory effect relative to 16b ([8]; enhanced compared with 16b) [fold] | IC50 [6] [µM] | anti-proliferative activity in words [9] |
| --- | --- | --- | --- | --- | --- | --- | --- | --- | --- | --- | --- | --- | --- | --- |
| O=C1Nc2ccc(Cl)cc2/C1=C1/Nc2ccc(O)cc2C1=NO [Compound 11a, (2′Z, 3′E)-5′-Hydroxy-5-chloro-indirubin-3′-oxime] | 16.4 | 5.14 | 12.2 | 10.7 | 2.92 | 3.5 | 10.2 | 0.00527 µM |  |  |  |  |  |  |
| O=C1Nc2ccc(F)cc2/C1=C1/Nc2ccc(O)cc2C1=NO [Compound 11c, (2′Z, 3′E)-5′-Hydroxy-5-fluoro-indirubin-3′-oxime] | 4.09 | 2.11 | 1.4 | 2.6 | 0.68 | 1.66 | 4.6 | 0.00225 µM |  |  |  |  |  |  |
| O=C1Nc2ccc(OC(F)(F)F)cc2/C1=C1/Nc2ccc(Cl)cc2C1=NO [Compound 12d, (2′Z, 3′E)-5′-Chloro-5-trifluoromethoxy-indirubin-3′-oxime] | > 20 | 2.71 | > 20 | 4.2 | 17.7 | 3.79 | 2.8 | 0.0762 µM |  |  |  |  |  |  |
| O=C1Nc2ccc([N+](=O)[O-])cc2/C1=C1/Nc2ccccc2C1=NO [Compound 1, 5-nitroindirubin-3′-oxime, reference compound] |  |  |  |  |  |  |  | 0.007 µM and 0.00735 µM |  |  |  |  |  |  |
| O=C1Nc2ccc(Cl)cc2/C1=C1/Nc2ccc(Cl)cc2C1=NO [Compound 12a, (2′Z, 3′E)-5′-Chloro-5-chloro-indirubin-3′-oxime] | > 20 | 2.57 | 17.2 | 6.1 | 12.2 | 1.86 | 11.9 | 0.0111 µM |  |  |  |  |  |  |
| O=C1Nc2ccc(OC(F)(F)F)cc2/C1=C1/Nc2ccc(O)cc2C1=NO [Compound 11d, (2′Z, 3′E)-5′-Hydroxy-5-trifluoromethoxy-indirubin-3′-oxime] | 16.9 | 2.96 | 5.9 | 4.2 | 2.28 | 2.25 | 5.8 | 0.00832 µM |  |  |  |  |  |  |
| O=C1Nc2ccc(F)cc2/C1=C1/Nc2ccc(Cl)cc2C1=NO [Compound 12c, (2′Z, 3′E)-5′-Chloro-5-fluoro-indirubin-3′-oxime] | 18.9 | 2.28 | 14.7 | 3.5 | 3.62 | 1.7 | 3.6 | 0.0101 µM |  |  |  |  |  |  |
